In patent US11066443B2 (Hoffmann-La Roche Inc., priority 2017, dated 2021):

The compounds below were run on P. aeruginosa NCTC11454 (assay: Antimicrobial susceptibility testing: 50% growth inhibitory concentration (IC50) determination). Settings: Pseudomonas aeruginosa, Iso-Sensitest broth, OD 600 nm every 20 minutes over 16h, growth inhibition during logarithmic growth.
Assay type: cell-based
Description: The in vitro antimicrobial activity of the compounds was alternatively determined according to the following procedure: The assay used a 10-points Iso-Sensitest broth medium to measure quantitatively the in vitro activity of the compounds against P. aeruginosa NCTC11454. Stock compounds in DMSO were serially twofold diluted (e.g. range from 50 to 0.097 μM final concentration) in 384 wells microtiter plates and inoculated with 49 μl the bacterial suspension in Iso-Sensitest medium to have a final cell concentration of ˜5×10^(5) CFU/ml in a final volume/well of 50 ul/well. Microtiter plates were incubated at 35±2° C. Bacterial cell growth was determined with the measurement of optical density at λ=600 nm each 20 minutes over a time course of 16h. Growth inhibition was calculated during the logarithmic growth of the bacterial cells with determination of the concentration inhibiting 50% (IC50) and 90% (IC90) of the growth. Table 2 provides the 50% growth inhibitory concentrations (IC50) in micromoles per liter of the compounds of present invention obtained against P. aeruginosa NCTC11454.

IC50 [µM]	Structure (SMILES)
7.62	CN1C(=O)[C@H](CCCCN)NC(=O)[C@H](CCCN)NCc2ccccc2Sc2ccc(Cl)cc2CNC(=O)[C@@H]1Cc1c[nH]c2cc(Cl)ccc12 [Example 7, (12S,15S,18S)-15-(4-Amino-butyl)-18-(3-amino-propyl)-6-chloro-12-(6-chloro-1H-indol-3-ylmethyl)-13-methyl-2-thia-10,13,16,19-tetraaza-tricyclo[19.4.0.0*3,8*]pentacosa-1(21),3,5,7,22,24-hexaene-11,14,17-trione]
13.2	CN1C(=O)[C@H](CCCCN)NC(=O)[C@H](CCCN)NCc2ccccc2Sc2ccc(Cl)cc2CNC(=O)[C@@H]1Cc1cn(C)c2cc(Cl)ccc12 [Example 8, (12S,15S,18S)-15-(4-Amino-butyl)-18-(3-amino-propyl)-6-chloro-12-(6-chloro-1-methyl-1H-indol-3-ylmethyl)-13-methyl-2-thia-10,13,16,19-tetraaza-tricyclo[19.4.0.0*3,8*]pentacosa-1(21),3,5,7,22,24-hexaene-11,14,17-trione]
24.5	CN1C(=O)[C@H](CCCCN)NC(=O)[C@H](CCCN)NCc2ccccc2Sc2ccc(Cl)c(Cl)c2CNC(=O)[C@@H]1Cc1c[nH]c2ccccc12 [Example 9, (12S,15S,18S)-15-(4-Amino-butyl)-18-(3-amino-propyl)-6,7-dichloro-12-(1H-indol-3-ylmethyl)-13-methyl-2-thia-10,13,16,19-tetraaza-tricyclo[19.4.0.0*3,8*]pentacosa-1(25),3,5,7,21,23-hexaene-11,14,17-trione]
10.7	CN1C(=O)[C@H](CCCCN)NC(=O)[C@H](CCCN)NCc2ccccc2Sc2c(Cl)ccc(C(F)(F)F)c2CNC(=O)[C@@H]1Cc1c[nH]c2ccccc12 [Example 10, (12S,15S,18S)-15-(4-Amino-butyl)-18-(3-amino-propyl)-4-chloro-12-(1H-indol-3-ylmethyl)-13-methyl-7-trifluoromethyl-2-thia-10,13,16,19-tetraaza-tricyclo[19.4.0.0*3,8*]pentacosa-1(25),3,5,7,21,23-hexaene-11,14,17-trione]

The next lines start with the compound.

Structure (SMILES)	IC50 [µM]
CN1C(=O)[C@H](CCCCN)NC(=O)[C@H](CCCN)NCc2ccccc2Sc2ccc(Cl)cc2CNC(=O)[C@@H]1Cc1c[nH]c2ccccc12 [Example 1, (12S,15S,18S)-15-(4-Amino-butyl)-18-(3-amino-propyl)-6-chloro-12-(1H-indol-3-ylmethyl)-13-methyl-2-thia-10,13,16,19-tetraaza-tricyclo[19.4.0.0*3,8*]pentacosa-1(21),3,5,7,22,24-hexaene-11,14,17-trione]	32
CN1C(=O)[C@H](CCCCN)NC(=O)[C@H](CCCN)NCc2ccccc2Sc2cc(C(F)(F)F)ccc2CNC(=O)[C@@H]1Cc1c[nH]c2ccccc12 [Example 4, (12S,15S,18S)-15-(4-Amino-butyl)-18-(3-amino-propyl)-12-(1H-indol-3-ylmethyl)-13-methyl-5-trifluoromethyl-2-thia-10,13,16,19-tetraaza-tricyclo[19.4.0.0*3,8*]pentacosa-1(21),3,5,7,22,24-hexaene-11,14,17-trione]	12.6
CN1C(=O)[C@H](CCCCN)NC(=O)[C@H](CCCN)NCc2ccccc2Sc2ccccc2CNC(=O)[C@@H]1Cc1c[nH]c2cc(Cl)ccc12 [Example 5, (12S,15S,18S)-15-(4-Amino-butyl)-18-(3-amino-propyl)-12-(6-chloro-1H-indol-3-ylmethyl)-13-methyl-2-thia-10,13,16,19-tetraaza-tricyclo[19.4.0.0*3,8*]pentacosa-1(21),3,5,7,22,24-hexaene-11,14,17-trione]	24.4
CN1C(=O)[C@H](CCCCN)NC(=O)[C@H](CCCN)NCc2ccccc2Sc2ccc(Cl)cc2CNC(=O)[C@@H]1Cc1cn(C)c2ccccc12 [Example 6, (12S,15S,18S)-15-(4-Amino-butyl)-18-(3-amino-propyl)-6-chloro-13-methyl-12-(1-methyl-1H-indol-3-ylmethyl)-2-thia-10,13,16,19-tetraaza-tricyclo[19.4.0.0*3,8*]pentacosa-1(21),3,5,7,22,24-hexaene-11,14,17-trione]	22.7
